In the supplement of paper PMC11451515:

System: SEM cells
Assay: cell viability relative to DMSO control; higher = less cytotoxic
Conditions: 48 h
How it was run: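 NOMO1, SEM and P12-Ichikawa leukemia cells spent at least four passages adapting to each medium before use. They were seeded at 500 cells/well (NOMO1, SEM) or 1000 cells/well (P12-Ichikawa) in 5 μl in 1536-well plates and pin-dosed with library compounds in DMSO at 11 threefold steps from 47 μM down to 0.79 nM. After 48 h at 37°C, CellTiter-Glo One luminescence was read. Viability is reported as a percentage of the DMSO wells on each plate, with cell-free wells as background.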

[1] = HPLM + 10% dialyzed FBS, 0.000781 µM
[2] = HPLM + 10% dialyzed FBS, 0.00234 µM
[3] = HPLM + 10% dialyzed FBS, 0.00702 µM
[4] = HPLM + 10% dialyzed FBS, 0.0211 µM
[5] = HPLM + 10% dialyzed FBS, 0.0632 µM
[6] = HPLM + 10% dialyzed FBS, 0.19 µM
[7] = HPLM + 10% dialyzed FBS, 0.569 µM
[8] = HPLM + 10% dialyzed FBS, 1.71 µM
[9] = HPLM + 10% dialyzed FBS, 5.12 µM
[10] = HPLM + 10% dialyzed FBS, 15.4 µM
[11] = HPLM + 10% dialyzed FBS, 46.1 µM
[12] = RPMI 5 mM glucose + 10% FBS, 0.000781 µM
[13] = RPMI 5 mM glucose + 10% FBS, 0.00234 µM
[14] = RPMI 5 mM glucose + 10% FBS, 0.00702 µM
[15] = RPMI 5 mM glucose + 10% FBS, 0.0211 µM
[16] = RPMI 5 mM glucose + 10% FBS, 0.0632 µM
[17] = RPMI 5 mM glucose + 10% FBS, 0.19 µM
[18] = RPMI 5 mM glucose + 10% FBS, 0.569 µM
[19] = RPMI 5 mM glucose + 10% FBS, 1.71 µM
[20] = RPMI 5 mM glucose + 10% FBS, 5.12 µM
[21] = RPMI 5 mM glucose + 10% FBS, 15.4 µM
[22] = RPMI 5 mM glucose + 10% FBS, 46.1 µM
[23] = RPMI 5 mM glucose + 10% dialyzed FBS, 0.000781 µM
[24] = RPMI 5 mM glucose + 10% dialyzed FBS, 0.00234 µM
[25] = RPMI 5 mM glucose + 10% dialyzed FBS, 0.00702 µM
[26] = RPMI 5 mM glucose + 10% dialyzed FBS, 0.0211 µM
[27] = RPMI 5 mM glucose + 10% dialyzed FBS, 0.0632 µM
[28] = RPMI 5 mM glucose + 10% dialyzed FBS, 0.19 µM
[29] = RPMI 5 mM glucose + 10% dialyzed FBS, 0.569 µM
[30] = RPMI 5 mM glucose + 10% dialyzed FBS, 1.71 µM
[31] = RPMI 5 mM glucose + 10% dialyzed FBS, 5.12 µM
[32] = RPMI 5 mM glucose + 10% dialyzed FBS, 15.4 µM
[33] = RPMI 5 mM glucose + 10% dialyzed FBS, 46.1 µM

Row | SMILES | cell viability [1] [%] | cell viability [2] [%] | cell viability [3] [%] | cell viability [4] [%] | cell viability [5] [%] | cell viability [6] [%] | cell viability [7] [%] | cell viability [8] [%] | cell viability [9] [%] | cell viability [10] [%] | cell viability [11] [%] | cell viability [12] [%] | cell viability [13] [%] | cell viability [14] [%] | cell viability [15] [%] | cell viability [16] [%] | cell viability [17] [%] | cell viability [18] [%] | cell viability [19] [%] | cell viability [20] [%] | cell viability [21] [%] | cell viability [22] [%] | cell viability [23] [%] | cell viability [24] [%] | cell viability [25] [%] | cell viability [26] [%] | cell viability [27] [%] | cell viability [28] [%] | cell viability [29] [%] | cell viability [30] [%] | cell viability [31] [%] | cell viability [32] [%] | cell viability [33] [%]
1 | COC1=CC=CC=C1C2=CC=CC(=C2)C/3=C(O)/C4=CC(=C(Cl)C=C4NC3=O)C#N | 79.2 | 92.5 | 88.2 | 93.5 | 101 | 97.5 | 92.1 | 85.7 | 39.6 | 9.1 | 4.47 | 73.4 | 89.9 | 90.7 | 103 | 83 | 81.3 | 63.9 | 48 | 7.21 | 4.33 | 2.82 | 87.3 | 102 | 92.9 | 98.7 | 93.4 | 102 | 93.4 | 69 | 21.6 | 7.81 | 3.41
2 | NC(=O)c1cnc(N[C@@H]2CCCC[C@@H]2N)nc1Nc1cccc(-n2nccn2)c1 | 105 | 103 | 112 | 111 | 130 | 120 | 110 | 123 | 96.5 | 44.3 | 11.6 | 84.8 | 101 | 125 | 135 | 142 | 103 | 125 | 123 | 107 | 40.3 | 10.7 | 122 | 120 | 122 | 146 | 162 | 131 | 148 | 129 | 124 | 58.3 | 34.4
3 | CC(=O)N(C)c1cccc(-c2ccnc3c(C(=O)c4cccs4)cnn23)c1 | 99.9 | 88.7 | 104 | 37.5 | 98.7 | 99.4 | 107 | 103 | 110 | 90 | 91.7 | 108 | 107 | 95.5 | 37.7 | 112 | 101 | 94.1 | 98.5 | 101 | 98.5 | 97 | 104 | 99.7 | 87 | 46.9 | 100 | 101 | 102 | 109 | 118 | 112 | 99.6
4 | COC1=CC2=NC=CC(=C2C=C1)OC3=CN=C(NC(=O)C/4=C(C)/N(CC(C)(C)O)N(C4=O)C5=CC=CC=C5)C=C3 | 82.3 | 84.7 | 63.1 | 83.6 | 89.4 | 86.1 | 79.1 | 52.1 | 32.7 | 36.4 | 31 | 108 | 96.2 | 91.6 | 108 | 103 | 99 | 82 | 60.9 | 29.3 | 36 | 31 | 74.1 | 82.1 | 76.7 | 77.8 | 79.4 | 80 | 60.5 | 50.3 | 32.8 | 33.2 | 27.4
5 | C=CC(=O)Nc1cccc(Oc2nc(Nc3ccc(N4CCN(C)CC4)cc3)ncc2Cl)c1 | 94.3 | 112 | 109 | 116 | 128 | 111 | 104 | 83 | 22.1 | 21.6 | 22.2 |  |  |  |  |  |  |  |  |  |  |  | 108 | 107 | 125 | 124 | 128 | 111 | 103 | 71.8 | 21.1 | 15 | 10.4
6 | COc1ccc(C[C@@H](C)[C@@H](C)Cc2ccc(OC)c(OC)c2)cc1OC | 73.5 | 93.2 | 85.2 | 92.7 | 96 | 94.9 | 91.8 | 83.2 | 19 | 16.3 | 8.54 | 80.6 | 104 | 102 | 111 | 106 | 120 | 93.3 | 82.4 | 18.7 | 16.7 | 4.5 | 76.3 | 97.7 | 88.9 | 91.7 | 88.9 | 83.7 | 81.1 | 74 | 18.3 | 14.9 | 4
7 | OC1=CC=C(C=C1)\C2=C\OC3=C(C=CC(=C3)O)C2=O | 102 | 96.6 | 103 | 109 | 114 | 102 | 104 | 102 | 108 | 101 | 94.5 | 100 | 89.9 | 109 | 104 | 107 | 96.5 | 99.4 | 104 | 112 | 96.7 | 104 | 96.7 | 97.1 | 109 | 118 | 101 | 101 | 107 | 112 | 110 | 101 | 104
8 | CCCCn1c(=O)n(Cc2ccccc2F)c(=O)c2nc(Cc3ccc(NC(C)=O)cc3)[nH]c21 | 101 | 98.7 | 87.6 | 109 | 104 | 84.9 | 89.8 | 97 | 98.2 | 81.1 | 93.7 | 101 | 102 | 105 | 89.5 | 90.3 | 86.9 | 88.1 | 97.6 | 92.1 | 96.1 | 99.5 | 92.9 | 91.3 | 98.7 | 81.5 | 110 | 85.5 | 85 | 99 | 97.3 | 90.9 | 91.8
